Measurements taken from patent publication US9365574B2, “Soluble guanylate cyclase activators” (Merck Sharp & Dohme Corp., priority 2010, dated 2016).

Tested on: Spontaneously hypertensive rats (SHR)
Test: Acute Efficacy in Spontaneously Hypertensive Rats (SHR), telemetry blood pressure
Format: in vivo, rat
Source text: Acute Efficacy in Spontaneously Hypertensive Rats (SHR)
Spontaneously hypertensive rats (SHR, male, Charles River) were implanted with DSI TA11PA-C40 telemetry device (Data Sciences, Inc., St. Paul, Minn.) under isoflurane or ketamine/metomidine anesthesia. The telemetry unit catheter was inserted into the descending aorta via the femoral artery and the telemetry device was implanted subcutaneously in the left flank area. Animals were allowed to recover from surgery for 14 days before the start of any studies. Blood pressure, heart rate, and activity signals from conscious, freely moving rats were recorded continuously for 30 seconds every 10 minutes. On the day prior to administration of compound, a single oral dose of vehicle (10% transcutol/20% Cremophor/70% water) was administered to all animals to establish baseline control data. The blood pressure lowering efficacy of compound (PO) or vehicle was evaluated following a single oral gavage. Data were collected as hourly averages, and changes in blood pressure were calculated by subtracting control baseline data on an hourly basis. Animals were maintained on normal diet with a 12 hour light-dark cycle.
Maximum peak decreases of systolic blood pressure (SBP) in SHR at a particular P.O. dose (mpk milligrams per kilogram) for the following representative compounds are provided.

## Cc1ccc2c(-c3nc(N)c4c(n3)NC(=O)C4(C)C(=O)NC3CC3)nn(CCC(F)(F)C(F)(F)F)c2n1 (centres unmarked) [Example 179, 4-Amino-N-Cyclopropyl-5-Methyl-2-(6-Methyl-1-(3,3,4,4,4-Pentafluorobutyl)-1H-Pyrazolo[3,4-B]Pyridin-3-yl)-6-Oxo-6,7-Dihydro-5H-Pyrrolo[2,3-D]Pyrimidine-5-Carboxamide]
Single oral dose 0.1 mpk P.O.
  Maximum peak decrease of systolic blood pressure (SBP) in SHR, Category: B (Category B=SBP in SHRs 25-40 mmHg)

## CC1(c2cn(CC3CC3)nn2)C(=O)Nc2nc(-c3nn(CCC(F)(F)F)c4ncccc34)nc(N)c21 (centres unmarked) [Example 180, 4-Amino-5-[1-(Cyclopropylmethyl)-1H-1,2,3-Triazol-4-yl]-5-Methyl-2-[1-(3,3,3-Trifluoropropyl)-1H-Pyrazolo[3,4-B]Pyridin-3-yl]-5,7-Dihydro-6H-Pyrrolo[2,3-D]Pyrimidin-6-One]
Dose 0.3 mpk
  Maximum SBP reduction: 18 ± 5 mmHg
Single oral dose 0.3 mpk P.O.
  Maximum peak decrease of systolic blood pressure (SBP) in SHR, Category: A (Category A=SBP in SHRs<25 mmHg)

## CC1(C(=O)NC2CC2)C(=O)Nc2nc(-c3nn(CCC(F)(F)F)c4ncccc34)nc(N)c21 (centres unmarked) [Example 181, 4-Amino-N-Cyclopropyl-5-Methyl-6-Oxo-2-[1-(3,3,3-Trifluoropropyl)-1H-Pyrazolo[3,4-B]Pyridin-3-yl]-6,7-Dihydro-5H-Pyrrolo[2,3-D]Pyrimidine-5-Carboxamide]
Dose 0.3 mpk
  Maximum SBP reduction: 49 ± 2 mmHg
Single oral dose 0.3 mpk P.O.
  Maximum peak decrease of systolic blood pressure (SBP) in SHR, Category: B (Category B=SBP in SHRs 25-40 mmHg)

## CC1(C(=O)Nc2cccnc2)C(=O)Nc2nc(-c3nn(CCC(F)(F)F)c4ncccc34)nc(N)c21 (centres unmarked) [Example 182, 4-Amino-5-Methyl-6-Oxo-N-(Pyridin-3-yl)-2-[1-(3,3,3-Trifluoropropyl)-1H-Pyrazolo[3,4-B]Pyridin-3-yl]-6,7-Dihydro-5H-Pyrrolo[2,3-D]Pyrimidine-5-Carboxamide]
Dose 1.0 mpk
  Maximum SBP reduction: 46 ± 11 mmHg
Single oral dose 1 mpk P.O.
  Maximum peak decrease of systolic blood pressure (SBP) in SHR, Category: B (Category B=SBP in SHRs 25-40 mmHg)

## CC1(C(=O)NC2CC2)C(=O)Nc2nc(-c3nn(CCC(F)(F)F)c4nc(Cl)ccc34)nc(N)c21 (centres unmarked) [Example 183, 4-Amino-2-[6-Chloro-1-(3,3,3-Trifluoropropyl)-1H-Pyrazolo[3,4-B]Pyridin-3-yl]-N-Cyclopropyl-5-Methyl-6-Oxo-6,7-Dihydro-5H-Pyrrolo[2,3-D]Pyrimidine-5-Carboxamide]
Single oral dose 0.3 mpk P.O.
  Maximum peak decrease of systolic blood pressure (SBP) in SHR, Category: C (Category C=SBP in SHRs>40 mmHg)

## Cc1ccc2c(-c3nc(N)c4c(n3)NC(=O)C4(C)C(=O)NC3CC3)nn(CCC(F)(F)F)c2n1 (centres unmarked) [Example 184, 4-Amino-N-Cyclopropyll-5-Methyl-2-[6-Methyl-1-(3,3,3-Trifluoropropyl)-1H-Pyrazolo[3,4-B]Pyridin-3-yl]-6-Oxo-6,7-Dihydro-5H-Pyrrolo[2,3-D]Pyrimidine-5-Carboxamide]
Dose 0.3 mpk
  Maximum SBP reduction: 19 ± 5 mmHg
Single oral dose 0.3 mpk P.O.
  Maximum peak decrease of systolic blood pressure (SBP) in SHR, Category: A (Category A=SBP in SHRs<25 mmHg)

## COc1ccc2c(-c3nc(N)c4c(n3)NC(=O)C4(C)C(=O)NC3CC3)nn(CCC(F)(F)F)c2n1 (centres unmarked) [Example 185, 4-Amino-N-Cyclopropyl-2-[6-Methoxy-1-(3,3,3-Trifluoropropyl)-1H-Pyrazolo[3,4-B]Pyridin-3-yl]-5-Methyl-6-Oxo-6,7-Dihydro-5H-Pyrrolo[2,3-D]Pyrimidine-5-Carboxamide]
Dose 1.0 mpk
  Maximum SBP reduction: 43 ± 7 mmHg
Single oral dose 1 mpk P.O.
  Maximum peak decrease of systolic blood pressure (SBP) in SHR, Category: C (Category C=SBP in SHRs>40 mmHg)

## CNc1nc(-c2nn(CCC(F)(F)C(F)(F)F)c3ncccc23)nc2c1C(C)(c1ccccc1)C(=O)N2 (centres unmarked) [Example 186, 5-Methyl-4-(Methylamino)-2-[1-(3,3,4,4,4-Pentafluorobutyl)-1H-Pyrazolo[3,4-B]Pyridin-3-yl]-5-Phenyl-5,7-Dihydro-6H-Pyrrolo[2,3-D]Pyrimidin-6-One]
Single oral dose 0.3 mpk P.O.
  Maximum peak decrease of systolic blood pressure (SBP) in SHR, Category: B (Category B=SBP in SHRs 25-40 mmHg)

## CNc1nc(-c2nn(CCC(F)(F)C(F)(F)F)c3ncccc23)nc2c1C(C)(C(=O)NC1CC1)C(=O)N2 (centres unmarked) [Example 187, N-Cyclopropyl-5-Methyl-4-(Methylamino)-6-Oxo-2-[1-(3,3,4,4,4-Pentafluorobutyl)-1H-Pyrazolo[3,4-B]Pyridin-3-yl]-6,7-Dihydro-5H-Pyrrolo[2,3-D]Pyrimidine-5-Carboxamide]
Single oral dose 0.3 mpk P.O.
  Maximum peak decrease of systolic blood pressure (SBP) in SHR, Category: B (Category B=SBP in SHRs 25-40 mmHg)

## CNc1nc(-c2nn(CCC(F)(F)C(F)(F)F)c3cc(Cl)ccc23)nc2c1C(C)(c1ccccc1)C(=O)N2 (centres unmarked) [Example 188, 2-[6-Chloro-1-(3,3,4,4,4-Pentafluorobutyl)-1H-Indazol-3-yl]-5-Methyl-4-(Methylamino)-5-Phenyl-5,7-Dihydro-6H-Pyrrolo[2,3-D]Pyrimidin-6-One]
Single oral dose 0.3 mpk P.O.
  Maximum peak decrease of systolic blood pressure (SBP) in SHR, Category: B (Category B=SBP in SHRs 25-40 mmHg)

## CNc1nc(-c2nn(CCC(F)(F)C(F)(F)F)c3ncccc23)nc2c1C(C)(c1nnc(C)o1)C(=O)N2 (centres unmarked) [Example 189, 5-Methyl-4-(Methylamino)-5-(5-Methyl-1,3,4-Oxadiazol-2-yl)-2-[1-(3,3,4,4,4-Pentafluorobutyl)-1H-Pyrazolo [3,4-B]Pyridin-3-yl]-5,7-Dihydro-6H-Pyrrolo[2,3-D]Pyrimidin-6-One]
Single oral dose 0.3 mpk P.O.
  Maximum peak decrease of systolic blood pressure (SBP) in SHR, Category: C (Category C=SBP in SHRs>40 mmHg)

## CC1(c2ccccc2)C(=O)Nc2nc(-c3nc(CCC(F)(F)C(F)(F)F)c4ncccn34)nc(N)c21 (centres unmarked) [Example 191, 4-Amino-5-Methyl-2-[8-(3,3,4,4,4-Pentafluorobutyl)Imidazo[1,5-A]Pyrimidin-6-yl]-5-Phenyl-5,7-Dihydro-6H-Pyrrolo[2,3-D]Pyrimidin-6-One]
Single oral dose 0.3 mpk P.O.
  Maximum peak decrease of systolic blood pressure (SBP) in SHR, Category: B (Category B=SBP in SHRs 25-40 mmHg)

## CC1(C(N)=O)C(=O)Nc2nc(-c3nn(CCC(F)(F)C(F)(F)F)c4cc(F)ccc34)nc(N)c21 (centres unmarked) [Example 192, 4-amino-2-[6-fluoro-1-(3,3,4,4,4-pentafluorobutyl)-1H-indazol-3-yl]-5-methyl-6-oxo-6,7-dihydro-5H-pyrrolo[2,3-d]pyrimidine-5-carboxamide]
Single oral dose 0.3 mpk P.O.
  Maximum peak decrease of systolic blood pressure (SBP) in SHR, Category: B (Category B=SBP in SHRs 25-40 mmHg)

## CC1(C(N)=O)C(=O)Nc2nc(-c3nn(CCC(F)(F)C(F)(F)F)c4ccccc34)nc(N)c21 (centres unmarked) [Example 193, 4-amino-5-methyl-6-oxo-2-[1-(3,3,4,4,4-pentafluorobutyl)-1H-indazol-3-yl]-6,7-dihydro-5H-pyrrolo[2,3-d]pyrimidine-5-carboxamide]
Single oral dose 0.3 mpk P.O.
  Maximum peak decrease of systolic blood pressure (SBP) in SHR, Category: C (Category C=SBP in SHRs>40 mmHg)

## CC1(C(=O)NC2CC2)C(=O)Nc2nc(-c3nn(CCC(F)(F)C(F)(F)F)c4ccccc34)nc(N)c21 (centres unmarked) [Example 194, 4-amino-N-cyclopropyl-5-methyl-6-oxo-2-[1-(3,3,4,4,4-pentafluorobutyl)-1H-indazol-3-yl]-6,7-dihydro-5H-pyrrolo[2,3-d]pyrimidine-5-carboxamide]
Single oral dose 0.3 mpk P.O.
  Maximum peak decrease of systolic blood pressure (SBP) in SHR, Category: C (Category C=SBP in SHRs>40 mmHg)

## CC1(C(=O)NC2CC2)C(=O)Nc2nc(-c3nn(CCC(F)(F)C(F)(F)F)c4cc(F)ccc34)nc(N)c21 (centres unmarked) [Example 195, 4-amino-N-cyclopropyl-2-[6-fluoro-1-(3,3,4,4,4-pentafluorobutyl)-1H-indazol-3-yl]-5-methyl-6-oxo-6,7-dihydro-5H-pyrrolo[2,3-d]pyrimidine-5-carboxamide]
Single oral dose 0.3 mpk P.O.
  Maximum peak decrease of systolic blood pressure (SBP) in SHR, Category: C (Category C=SBP in SHRs>40 mmHg)

## CC1(C(=O)NC2CCC2)C(=O)Nc2nc(-c3nn(CCC(F)(F)C(F)(F)F)c4cc(Cl)ccc34)nc(N)c21 (centres unmarked) [Example 196, 4-amino-2-[6-chloro-1-(3,3,4,4,4-pentafluorobutyl)-1H-indazol-3-yl]-N-cyclobutyl-5-methyl-6-oxo-6,7-difluoro-5H-pyrrolo[2,3-d]pyrimidine-5-carboxamide]
Single oral dose 0.3 mpk P.O.
  Maximum peak decrease of systolic blood pressure (SBP) in SHR, Category: B (Category B=SBP in SHRs 25-40 mmHg)

## CC(C)NC(=O)C1(C)C(=O)Nc2nc(-c3nn(CCC(F)(F)C(F)(F)F)c4ncccc34)nc(N)c21 (centres unmarked) [Example 197, 4-amino-5-methyl-N-(1-methylethyl)-6-oxo-2-[1-(3,3,4,4,4-pentafluorobutyl)-1H-pyrazolo[3,4-b]pyridin-3-yl]-6,7-dihydro-5H-pyrrolo[2,3-d]pyrimidine-5-carboxamide]
Single oral dose 0.3 mpk P.O.
  Maximum peak decrease of systolic blood pressure (SBP) in SHR, Category: B (Category B=SBP in SHRs 25-40 mmHg)

## Cc1nnc(C2(C)C(=O)Nc3nc(-c4nn(CCC(F)(F)F)c5cc(Cl)ccc45)nc(N)c32)o1 (centres unmarked) [Example 198, 4-amino-2-[6-chloro-1-(3,3,3-trifluoropropyl)-1H-indazol-3-yl]-5-methyl-5-(5-methyl-1,3,4-oxadiazol-2-yl)-5,7-dihydro-6H-pyrrolo[2,3-d]pyrimidin-6-one]
Single oral dose 0.3 mpk P.O.
  Maximum peak decrease of systolic blood pressure (SBP) in SHR, Category: B (Category B=SBP in SHRs 25-40 mmHg)

## CC(C)n1nc(C2(C)C(=O)Nc3nc(-c4nn(CCC(F)(F)C(F)(F)F)c5ccncc45)nc(N)c32)oc1=O (centres unmarked) [Example 199, 4-amino-5-methyl-5-[4-(1-methylethyl)-5-oxo-4,5-dihydro-1,3,4-oxadiazol-2-yl]-2-[1-(3,3,4,4,4-pentafluorobutyl)-1H-pyrazolo[3,4-d]pyridin-3-yl]-5,7-dihydro-6H-pyrrolo[2,3-d]pyrimidin-6-one]
Single oral dose 0.3 mpk P.O.
  Maximum peak decrease of systolic blood pressure (SBP) in SHR, Category: B (Category B=SBP in SHRs 25-40 mmHg)

## CC1(C(=O)NC2CC2)C(=O)Nc2nc(-c3nn(CCOC(F)(F)F)c4ncccc34)nc(N)c21 (centres unmarked) [Example 200, 4-amino-N-cyclopropyl-5-methyl-6-oxo-2-{1-[2-(trifluoromethoxy)ethyl]-1H-pyrazolo[3,4-6]pyridin-3-yl}-6,7-dihydro-5H-pyrrolo[2,3-d]pyrimidine-5-carboxamide]
Single oral dose 0.3 mpk P.O.
  Maximum peak decrease of systolic blood pressure (SBP) in SHR, Category: C (Category C=SBP in SHRs>40 mmHg)
